Test results from US11427556B2, “Urea derivatives as inhibitors of ASK1” (Hepagene Therapeutics (HK) Limited, priority 2017, dated 2022).
Read-outs that look alike come from different tables or passages of the source.

Target: T1, Recombinant human ASK1 kinase (Homo sapiens, UniProt Q99683)
T1 construct: purchased Invitrogen Inc
T1 sequence (Q99683 1-1374): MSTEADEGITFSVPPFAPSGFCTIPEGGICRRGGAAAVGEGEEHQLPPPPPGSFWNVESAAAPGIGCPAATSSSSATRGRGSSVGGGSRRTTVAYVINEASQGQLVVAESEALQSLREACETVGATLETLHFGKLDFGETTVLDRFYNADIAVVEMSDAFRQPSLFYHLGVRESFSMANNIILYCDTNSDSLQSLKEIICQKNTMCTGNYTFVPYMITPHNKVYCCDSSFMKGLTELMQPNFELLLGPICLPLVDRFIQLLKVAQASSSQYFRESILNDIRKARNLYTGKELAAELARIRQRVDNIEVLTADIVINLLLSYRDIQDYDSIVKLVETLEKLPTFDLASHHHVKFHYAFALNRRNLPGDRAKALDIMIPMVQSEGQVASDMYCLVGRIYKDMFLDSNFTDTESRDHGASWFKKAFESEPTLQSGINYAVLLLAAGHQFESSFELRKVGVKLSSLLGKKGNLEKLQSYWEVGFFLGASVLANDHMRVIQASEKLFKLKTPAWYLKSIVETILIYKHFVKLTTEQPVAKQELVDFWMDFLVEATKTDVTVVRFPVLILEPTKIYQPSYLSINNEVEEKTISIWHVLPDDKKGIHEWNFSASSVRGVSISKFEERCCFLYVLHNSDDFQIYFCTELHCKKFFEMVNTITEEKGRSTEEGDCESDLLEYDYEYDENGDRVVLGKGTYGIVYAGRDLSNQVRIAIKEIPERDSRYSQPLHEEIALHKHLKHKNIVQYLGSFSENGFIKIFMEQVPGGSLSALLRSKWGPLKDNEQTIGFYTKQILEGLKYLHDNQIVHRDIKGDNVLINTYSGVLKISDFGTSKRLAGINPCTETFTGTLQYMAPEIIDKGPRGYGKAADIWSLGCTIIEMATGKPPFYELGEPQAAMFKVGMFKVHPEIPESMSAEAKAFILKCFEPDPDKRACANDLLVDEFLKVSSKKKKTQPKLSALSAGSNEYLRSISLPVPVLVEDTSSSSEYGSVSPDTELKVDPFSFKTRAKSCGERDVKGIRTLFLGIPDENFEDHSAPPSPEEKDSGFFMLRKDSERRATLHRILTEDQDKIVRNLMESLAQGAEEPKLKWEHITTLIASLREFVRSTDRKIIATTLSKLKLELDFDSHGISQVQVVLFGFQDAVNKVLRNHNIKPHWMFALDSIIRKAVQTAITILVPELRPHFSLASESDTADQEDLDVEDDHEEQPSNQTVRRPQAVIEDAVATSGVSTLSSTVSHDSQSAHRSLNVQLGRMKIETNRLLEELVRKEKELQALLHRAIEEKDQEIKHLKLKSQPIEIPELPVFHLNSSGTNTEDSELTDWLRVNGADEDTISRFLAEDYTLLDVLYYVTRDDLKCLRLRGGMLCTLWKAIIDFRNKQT
Experiment: ASK1 kinase HTRF assay (HTRF KinEASE-STK, phosphorylation of biotinylated peptide substrate)
Format: biochemical
Protocol: Reagents: Recombinant human ASK1 kinase was from Invitrogen Inc. HTRF KinEASETM-STK S3 kit was obtained from Cisbio (Bedford, Mass.). All other reagents were of the highest grade commercially available.
Assay: The assay measures the phosphorylation level of a biotinylatd peptide substrate by the ASK1 kinase using HTRF detection. ASK1 kinase assay is based on HTRF KinEASETM-STK manual from Cisbio. Test compound, 1 uM STK-substrate-biotin, 3 nM of ASK1 kinase are incubated with 1*Kinase buffer with 5 mM MgCl2 and 1 mM DTT.

[1] = 3 nM ASK1 kinase, 1 uM STK-substrate-biotin, HTRF detection, read-out: EC50

| Structure (SMILES) | EC50 [1] [nM] | EC50 [nM] |
| --- | --- | --- |
| C[C@H](CO)n1cnnc1-c1cccc(NC(=O)Nc2cc(-c3ccccc3)ccn2)n1 [Compound I-078] | < 50 |  |
| CC(C)n1cnnc1-c1cccc(NC(=O)Nc2ccc(CO)cn2)n1 [Compound I-208] | < 50 |  |
| CC(C)N1CCN(c2ccnc(NC(=O)Nc3cccc(-c4nncn4C(C)C)n3)c2)CC1 [Compound I-098] | < 50 |  |
| CC(C)n1cnnc1-c1cccc(NC(=O)Nc2cc(C(N)=O)ccn2)n1 [Compound I-108] | < 50 |  |
| CC(C)n1cnnc1-c1cccc(NC(=O)Nc2cc(-c3ccc(C4CC4)nc3)ccn2)n1 [Compound I-081] | < 50 |  |
| CC(C)n1cnnc1-c1cccc(NC(=O)Nc2ccc(Cl)cn2)n1 [Compound I-184] | < 50 |  |
| CC(C)n1cnnc1-c1cccc(NC(=O)Nc2ccccc2)n1 [Compound I-016] |  | 50 to 500 |
| CC(C)n1cnnc1-c1cccc(NC(=O)Nc2ccc(OCc3ccccc3)cn2)n1 [Compound I-071] | < 50 |  |
| CC(C)n1cnnc1-c1cccc(NC(=O)Nc2cc(-c3ccc(C4CC4)cc3)ccn2)n1 [Compound I-080] | < 50 |  |
| CC1CN(c2ccc(N3CCN(c4cccc(-c5nncn5C(C)C)n4)C3=O)nc2)CC(C)O1 (centres unmarked) [Compound V-16] | < 50 |  |
| Cc1ccc(NC(=O)Nc2cccc(-c3nncn3C(C)C)n2)nc1 [Compound I-001, 1-(6-(4-Isopropyl-4H-1,2,4-triazol-3-yl)pyridin-2-yl)-3-(5-methylpyridin-2-yl) urea] | < 50 |  |
| CC(C)n1cnnc1-c1cccc(NC(=O)Nc2cc(C(=O)N3CCCCC3)ccn2)n1 [Compound I-109] |  | < 50 |
| CC(C)n1cnnc1-c1cccc(NC(=O)Nc2cc(C(=O)Nc3ccccc3F)ccn2)n1 [Compound I-156] | < 50 |  |
| CC(C)n1cnnc1-c1cccc(NC(=O)Nc2ccc(F)cn2)n1 [Compound I-188] | < 50 |  |
| CC(=O)OC[C@@H](C)n1cnnc1-c1cccc(NC(=O)Nc2cc3ccccc3cn2)n1 [Compound I-061] | 50 to 500 |  |
| C[C@H](CO)n1cnnc1-c1cccc(NC(=O)Nc2cc(C(=O)N3CCC[C@@H]4CCCC[C@H]43)ccn2)n1 [Compound I-126] | < 50 |  |
| CC(C)n1cnnc1-c1cccc(N2CCN(c3ccc(F)cn3)C2=O)n1 [Compound V-02] | < 50 |  |
| CC(C)n1cnnc1-c1cccc(NC(=O)Nc2cc(C(=O)N3CCC(C)(C)CC3)ccn2)n1 [Compound I-117] | < 50 |  |
| C[C@H](CO)n1cnnc1-c1cccc(NC(=O)Nc2cc(C(=O)N3CCC(=O)CC3)ccn2)n1 [Compound I-135] |  | < 50 |

| Structure (SMILES) | EC50 [1] [nM] | EC50 [nM] |
| --- | --- | --- |
| Cc1ccc(-n2ccn(-c3cccc(-c4nncn4C(C)C)n3)c2=O)nc1 [III-05] | < 50 |  |
| CC(C)n1cnnc1-c1cccc(NC(=O)Nc2ccc(C3CC3)cn2)n1 [Compound I-046] | < 50 |  |
| CC(C)n1cnnc1-c1cccc(NC(=O)Nc2cc(-c3ccccn3)ccn2)n1 [Compound I-084] | < 50 |  |
| CC(C)n1cnnc1-c1cccc(-n2ccn(-c3ccc(C(=O)N4CCCCC4)cn3)c2=O)n1 [III-02, 1-(6-(4-Isopropyl-4H-1,2,4-triazol-3-yl)pyridin-2-yl)-3-(5-(piperidine-1-carbonyl)pyridin-2-yl)-1H-imidazol-2(3H)-one] | < 50 |  |
| CC(C)[C@H](N)C(=O)OC[C@@H](C)n1cnnc1-c1cccc(NC(=O)Nc2cc(C(=O)N3CCCCC3)ccn2)n1 [Compound I-013, (2R)-2-[3-[6-([[4-(Piperidine-1-carbonyl)pyridin-2-yl]carbamoyl]amino)pyridin-2-yl]-4H-1,2,4-triazol-4-yl]propyl (2S)-2-amino-3-methylbutanoate] | < 50 |  |
| CC(C)n1cnnc1-c1cccc(NC(=O)Nc2ccc([N+](=O)[O-])cn2)n1 [Compound I-210] | < 50 |  |
| CC(C)n1cnnc1-c1cccc(NC(=O)Nc2ccc(N(C)C)cn2)n1 [Compound I-191] | < 50 |  |
| CC(C)n1cnnc1-c1cccc(NC(=O)Nc2ccccn2)n1 [Compound I-025] |  | < 50 |
| CC(C)n1cnnc1-c1cccc(NC(=O)Nc2cc(N3CCC(N4CCOCC4)CC3)ccn2)n1 [Compound I-106] | < 50 |  |
| CNc1ccnc(NC(=O)Nc2cccc(-c3nncn3C(C)C)n2)c1 [Compound I-190] | < 50 |  |
| Cc1ccc(NC(=O)Nc2cccc(-c3nncn3C3CC3)n2)nc1 [Compound I-034] | 50 to 500 |  |
| CC(C)n1cnnc1-c1cccc(NC(=O)Nc2cccc(Cl)n2)n1 [Compound I-185] | < 50 |  |
| CC(C)n1cnnc1-c1cccc(NC(=O)Nc2ccc(C(N)=O)cn2)n1 [Compound I-009, 6-(3-(6-(4-Isopropyl-4H-1,2,4-triazol-3-yl)pyridin-2-yl)ureido)nicotinamide] | < 50 |  |
| Cc1cnc(NC(=O)Nc2cccc(-c3nncn3C(C)C)n2)nc1 [Compound I-211] | < 50 |  |
| CC(C)n1cnnc1-c1cccc(NC(=O)Nc2ncccc2O)n1 [Compound I-072] | < 50 |  |
| CC(C)n1cnnc1-c1cccc(NC(=O)Nc2cc(C(=O)N3CCC(O)CC3)ccn2)n1 [Compound I-136] | < 50 |  |
| CC1(n2cnnc2-c2cccc(NC(=O)Nc3cc(C(=O)N4CCCCC4)ccn3)n2)CC1 [Compound I-115] | < 50 |  |
| CC(C)n1cnnc1-c1cccc(NC(=O)Nc2ccc(O)cn2)n1 [Compound I-074] | < 50 |  |
| CC(C)n1cnnc1-c1cccc(NC(=O)Nc2cccnc2)n1 [Compound I-032] |  | 50 to 500 |

| Structure (SMILES) | EC50 [1] [nM] | EC50 [nM] |
| --- | --- | --- |
| CC(C)n1cnnc1-c1cccc(NC(=O)Nc2cc(C(=O)N3CCNCC3)ccn2)n1 [Compound I-139] |  | < 50 |
| Cc1ccc(NC(=O)Nc2cccc(-c3nncn3C(C)C)n2)c(F)c1 [Compound I-018] | 50 to 500 |  |
| CC(C)n1cnnc1-c1cccc(N2CCN(c3ccc(N4CCOCC4)cc3)C2=O)n1 [Compound V-11] | < 50 |  |
| C[C@H](CO)n1cnnc1-c1cccc(N2CCN(c3ccc(N4CCOCC4)cn3)C2=O)n1 [Compound V-18] | < 50 |  |
| CC(C)n1cnnc1-c1cccc(NC(=S)Nc2ccccn2)n1 [VI-01, 1-(6-(4-Isopropyl-4H-1,2,4-triazol-3-yl)pyridin-2-yl)-3-(pyridin-2-yl)thiourea] | 50 to 500 |  |
| CC(C)n1cnnc1-c1cccc(NC(=O)Nc2cc(C(=O)Nc3ccc(F)cc3)ccn2)n1 [Compound I-158] | < 50 |  |
| CC(C)n1cnnc1-c1cccc(NC(=O)Nc2ccc(-c3cccnc3)cn2)n1 [Compound I-089] | < 50 |  |
| CC(C)n1cnnc1-c1cccc(NC(=O)Nc2ccncc2)n1 [Compound I-033] |  | 50 to 500 |
| C[C@H](CO)n1cnnc1-c1cccc(-n2ccn(-c3ccc(-c4ccccc4)cn3)c2=O)n1 [III-07] | < 50 |  |
| C[C@H](CO)n1cnnc1-c1cccc(NC(=O)Nc2cc(C(=O)N3CCC(F)(F)CC3)ccn2)n1 [Compound I-144] | < 50 |  |
| CC(C)n1cnnc1-c1cccc(NC(=O)Nc2cc(C(=O)N3CCCC4CCCCC43)ccn2)n1 (centres unmarked) [Compound I-125] | < 50 |  |
| C[C@H](CO)n1cnnc1-c1cccc(NC(=O)Nc2cc(C(=O)N3CCNCC3)ccn2)n1 [Compound I-140] |  | < 50 |
| CC(C)n1cnnc1-c1cccc(NC(=O)Nc2ccc(-c3ccccc3)cn2)n1 [Compound I-076] | < 50 |  |
| C[C@H](CO)n1cnnc1-c1cccc(NC(=O)Nc2nc3ccccc3o2)n1 [Compound I-217] | < 50 |  |
| CC(C)n1cnnc1-c1cccc(NC(=O)Nc2cc(C3CCOCC3)ccn2)n1 [Compound I-091] | < 50 |  |
| CC(C)n1cnnc1-c1cccc(NC(=O)Nc2cc(C(=O)N3CC[C@@H]4CCCC[C@H]4C3)ccn2)n1 [Compound I-127] | < 50 |  |
| CC(C)n1cnnc1-c1cccc(NC(=O)Nc2ccc3ccccc3n2)n1 [Compound I-067] |  | < 50 |
| C[C@H](CO)n1cnnc1-c1cccc(-n2ccn(-c3cc(-c4ccccc4)ccn3)c2=O)n1 [III-08] | 50 to 500 |  |
